In ChEMBL document CHEMBL1201862, “PubChem BioAssay data set” (2004):
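Briefly, cells in 96-well plates were exposed to five compound concentrations for 48 h, and endpoints were estimated by linear interpolation. GI50: concentration for 50% inhibition of growth.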 Activity calls are given as the source filed them. No stated cut-off is given here; in the data, active = GI50 up to about 1.1 µM and inactive = higher. Square brackets hold non-standard residues; d marks the D form. Peptide text beside a SMILES is read from it. * marks the point of attachment. X26 = COC1=CC(=O)N(C(=O)[C@@H](O*)C(C)C)[C@H]1Cc1ccccc1; NMeL = CN[C@@H](CC(C)C)C(=O)O; Hexanoyl = CCCCCC(=O)*

Key:
Experiment in all cases: NCI anticancer screen, dose series, 48 h
786-0 = system: 786-0
A549 = system: A549
CCRF-CEM = system: CCRF-CEM
COLO 205 = system: COLO 205
EKVX = system: EKVX
HOP-62 = system: HOP-62
LOX IMVI = system: LOX IMVI
M14 = system: M14
MCF7 = system: MCF7
MDA-MB-435 = system: MDA-MB-435
MOLT-4 = system: MOLT-4
NCI-H522 = system: NCI-H522
OVCAR-5 = system: OVCAR-5
SF-539 = system: SF-539
SK-MEL-28 = system: SK-MEL-28
SK-MEL-2 = system: SK-MEL-2
T47D = system: T47D
UACC-62 = system: UACC-62
UO-31 = system: UO-31
SR = system: SR

Measured: GI50

CSc1nnnc2ccccc12
inactive: 786-0 > 100 µM | A549 > 100 µM | CCRF-CEM 51.4 µM | COLO 205 > 100 µM | EKVX > 100 µM | HOP-62 > 100 µM | LOX IMVI > 100 µM | M14 > 100 µM | MCF7 51.4 µM | MDA-MB-435 > 100 µM | MOLT-4 > 100 µM | NCI-H522 > 100 µM | OVCAR-5 > 100 µM | SF-539 > 100 µM | SK-MEL-28 > 100 µM | SK-MEL-2 > 100 µM | T47D 85.1 µM | UACC-62 > 100 µM | UO-31 > 100 µM

N=C(N)SCc1cc(Cl)cc(Cl)c1O
inactive: 786-0 18 µM | A549 20.7 µM | CCRF-CEM 13.7 µM | COLO 205 17.7 µM | EKVX 15.2 µM | HOP-62 18.8 µM | LOX IMVI 18.5 µM | M14 16.6 µM | MCF7 25.2 µM | MDA-MB-435 19.7 µM | MOLT-4 24.4 µM | NCI-H522 15.9 µM | OVCAR-5 16.3 µM | SF-539 3.58 µM | SK-MEL-28 22.6 µM | SK-MEL-2 18.2 µM | T47D 20.9 µM | UACC-62 17.3 µM | UO-31 15.5 µM

Cc1ccc2c(c1C)CC1(Cc3c(C)ccc(C)c3C1=O)C2=O (stereo not given)
inactive: 786-0 > 100 µM | A549 > 100 µM | CCRF-CEM > 100 µM | COLO 205 > 100 µM | EKVX > 100 µM | M14 > 100 µM | MCF7 > 100 µM | MDA-MB-435 > 100 µM | MOLT-4 > 100 µM | NCI-H522 > 100 µM | OVCAR-5 > 100 µM | SF-539 > 100 µM | SK-MEL-28 > 100 µM | T47D > 100 µM | UACC-62 > 100 µM | UO-31 > 100 µM

COc1cc(/C=C2/C(=O)N/C(=N\C(C)=O)N2C)ccc1OC(C)=O
inactive: 786-0 > 100 µM | A549 > 100 µM | COLO 205 > 100 µM | EKVX > 100 µM | HOP-62 > 100 µM | LOX IMVI > 100 µM | M14 > 100 µM | MCF7 > 100 µM | MDA-MB-435 > 100 µM | MOLT-4 > 100 µM | OVCAR-5 > 100 µM | SF-539 > 100 µM | SK-MEL-28 > 100 µM | SK-MEL-2 > 100 µM | T47D > 100 µM | UACC-62 > 100 µM | UO-31 > 100 µM

[N-]=[N+]=Nc1c(-c2ccccc2)c(=O)n(-c2ccccc2)c2ccccc12
inactive: 786-0 > 100 µM | A549 > 100 µM | CCRF-CEM > 100 µM | COLO 205 62.1 µM | EKVX 17.6 µM | HOP-62 99.5 µM | LOX IMVI 63.2 µM | M14 62.2 µM | MCF7 54.1 µM | MDA-MB-435 60.8 µM | MOLT-4 75.7 µM | NCI-H522 27.7 µM | SF-539 > 100 µM | SK-MEL-28 94.6 µM | SR > 100 µM | T47D 24.6 µM | UACC-62 56 µM | UO-31 37.3 µM

Fc1ccc(-c2sc(-c3ccsc3)cc2Cc2ccsc2)cc1
inactive: 786-0 > 10 µM | A549 > 10 µM | CCRF-CEM > 10 µM | COLO 205 > 10 µM | EKVX > 10 µM | HOP-62 > 10 µM | LOX IMVI > 10 µM | M14 > 10 µM | MCF7 > 10 µM | MDA-MB-435 > 10 µM | MOLT-4 > 10 µM | SK-MEL-28 > 10 µM | SR > 10 µM | T47D > 10 µM | UACC-62 > 10 µM

CCCCCCCCCCCCCCCCOCC(Cl)COP(=O)(O)OP(=O)(O)OCC1OC(n2cc(C)c(=O)[nH]c2=O)CC1O (stereo not given)
inactive: 786-0 > 100 µM | A549 > 100 µM | CCRF-CEM > 100 µM | COLO 205 > 100 µM | EKVX > 100 µM | HOP-62 > 100 µM | LOX IMVI > 100 µM | M14 > 100 µM | MCF7 > 100 µM | MDA-MB-435 57.1 µM | MOLT-4 > 100 µM | NCI-H522 > 100 µM | OVCAR-5 95.1 µM | SF-539 72.9 µM | SK-MEL-28 55.2 µM | SK-MEL-2 > 100 µM | T47D 97.3 µM | UO-31 > 100 µM

CCCCCC(=O)N[C@H](C(=O)N[C@H](C(=O)N(C)[C@@H](CC(C)C)C(=O)N1CCC[C@H]1C(=O)N1CCC[C@H]1C(=O)O[C@H](C(=O)N1C(=O)C=C(OC)[C@@H]1Cc1ccccc1)C(C)C)C(C)C)C(C)C (Hexanoyl-VV[NMeL]PP-X26)
inactive: 786-0 > 91 µM | A549 18.1 µM | CCRF-CEM 42.9 µM | COLO 205 32.5 µM | EKVX > 100 µM | HOP-62 > 100 µM | LOX IMVI > 100 µM | M14 > 33.3 µM | MCF7 25.9 µM | MDA-MB-435 47.9 µM | MOLT-4 1.9 µM | NCI-H522 > 100 µM | OVCAR-5 > 100 µM | SF-539 > 59.2 µM | SK-MEL-28 > 100 µM | SK-MEL-2 > 100 µM | T47D 70.8 µM | UACC-62 > 100 µM
